Values quoted from earlier work, collected in publication PMC3483082 (Chembiochem : a European journal of chemical biology, 2012).

How the values were obtained:
[1] = system: CDK1; details: read-out: IC50 CDK1
[2] = system: CDK2; details: read-out: IC50 (CDK2 inhibitor)

CCN(CC)CCNC(=O)c1c(C)[nH]c(/C=C2\C(=O)Nc3ccc(F)cc32)c1C [Hit 1, sunitinib]
IC50 [1]: 2600 nM
